8 molecules from ChEMBL document CHEMBL1148240, “3-hydroxy-quinazoline-2,4-dione as a useful scaffold to obtain selective Gly/NMDA and AMPA receptor antagonists” (Bioorg Med Chem Lett, 2004) can be followed below.

The term Ki denotes a measure of affinity in units of concentration, obtained from inhibition or displacement. The IC50 is the concentration at which inhibition is half-maximal. Higher therefore signals lower potency. In general, inhibition refers to the drop in the measured response relative to a control, in per cent. Low readings indicate a response near the control, high ones a response far below the control.

The target in experiment [1] is Glutamate receptor ionotropic, NMDA 1 (Rattus norvegicus, UniProt P35439). In words: Ability of compound to displace [3H]glycine from N-methyl-D-aspartate glutamate receptor 1 from in cerebral cortex synaptic membranes. Format: cell membranes.
The target of experiment [2] is T1, Glutamate receptor ionotropic, AMPA (Rattus norvegicus, UniProt P19490+P19491+P19492+P19493). The experiment in a line: Ability of compound to displace [3H]AMPA from Ionotropic glutamate receptor AMPA in rat cerebral cortex synaptic membranes. The format is cell membranes, Membrane.
For experiment [3], the target named is Glutamate receptor ionotropic, kainate. In words: Ability of compound to displace [3H]- kainate from ionotropic glutamate receptor kainate in rat cortical membranes. The format is cell membranes, Membrane.
Experiment [4] in a line: Ability of compound to inhibit the binding of the channel blocking agent [3H](+)-MK-801 in rat cortical membranes. Format: cell membranes, Membrane.
The target of experiment [5] is Glutamate NMDA receptor. In words: Inhibitory concentration of compound for depolarization induced by 5 uM NMDA in mouse cortical wedge preparation. Format: protein-complex assay.
Experiment [6] concerns the target T1, Glutamate receptor ionotropic, AMPA.
Description: Inhibitory concentration of compound for depolarization induced by 5 uM S-AMPA in mouse cortical wedge preparation
The species entered for the next experiment is Rattus norvegicus. In words: Ability of compound to inhibit the binding of the channel blocking agent [3H](+)-MK-801 in rat cortical membranes at 100 uM concentration. The format is cell membranes. The note with it: Membrane.
For experiment [7], the target named is Glutamate NMDA receptor.

Where only a bound is given, the exact number is not on record here.

As to `O=c1[nH]c2cc(Cl)cc(Cl)c2c(=O)n1-c1ccccc1`, the Ki in experiment [1] is 23 µM.
`O=c1[nH]c2cc(Cl)c(Cl)cc2c(=O)n1O`: the inhibition constant (Ki) in experiment [2] came to 12.5 µM; in experiment [1] it was 0.3 µM. In addition, the figures for the 50% inhibitory concentration (IC50) in experiment [3] and in experiment [4] were 68 µM and 0.43 µM, respectively.
Take `O=c1[nH]c2cc(Cl)c([N+](=O)[O-])cc2c(=O)n1O`: the Ki amounted to 1.3 µM in experiment [2] and 1.1 µM in experiment [1]. Moreover, the half-maximal inhibitory concentration (IC50) stood at 19.2 µM in experiment [3], 36 µM at Glutamate NMDA receptor [5], 1.7 µM in experiment [4] and 29 µM in experiment [6].
`Nc1cc2c(=O)n(O)c(=O)[nH]c2cc1Cl`: the inhibition constant (Ki) in experiment [2] is 9.7 µM; in experiment [1], 10.6 µM. For the same molecule, the IC50 in experiment [3] was determined as 70 µM; in experiment [4] it was 89 µM.
On to `O=c1[nH]c2cc(Cl)c(-n3cnnc3)cc2c(=O)n1O`, for which the Ki in experiment [2] is 0.25 µM; in experiment [1] it was greater than 100 µM. Besides, the values for the IC50 (in experiment [3]; on Glutamate NMDA receptor [5]; in experiment [6]) were 7 µM, 84 µM and 4.6 µM, respectively. Further, the inhibition in the experiment listed under Rattus norvegicus came out at 29%.
For `O=c1[nH]c2cc(Cl)cc(Cl)c2c(=O)n1O`, the Ki in experiment [2] was found to be 9.8 µM; in experiment [1], 0.2 µM. Moreover, the IC50 in experiment [3] came to 52 µM; against Glutamate NMDA receptor [5], 42 µM; in experiment [4], 0.75 µM; in experiment [6], 33 µM.
Turning to `O=c1[nH]c2cc(Cl)ccc2c(=O)n1O`, the Ki in experiment [2] amounted to 11.6 µM; in experiment [1], 0.24 µM. Also, the IC50 is 140 µM in experiment [3] and 4.8 µM in experiment [4].
Molecule `O=C(O)c1cc(O)c2c(Cl)cc(Cl)cc2n1` had a Ki at Glutamate NMDA receptor [7] of 4.7 µM.
